The test system of series [1] is HBV. Description: Anti-HBV activity, HepG2.2.15 stable transfected cell line, HBV DNA from secreted virions by realtime PCR. The format is cell-based. The following applies: Hepatitis B virus.
In series [2] the test system is HBV. Description: Anti-HBV activity, HepG2.117 inducible HBV producing cell line (Tet-off), intracellular HBV DNA by realtime PCR. Format: cell-based. The conditions noted are these: Hepatitis B virus.
The nature of series [3]: Cytotoxicity in HepG2 cells, Resazurin viability assay. The conditions noted are these: human, HepG2 cells. Background: The colour change of resazurin is a common sign of viable cells or microbes.
Setting [4] is: HepG2.2.15, 144 h, read-out: HepG 2.2.15 EC50 (μM).
Where [5] appears, read: HepG2.117, 72 h, read-out: HepG2 117 EC50 (μM).
Setting [6] is: 144 h, HepG2.2.15 cells, 6 days of treatment, HBV DNA from secreted virions, read-out: HepG 2.2.15 EC50.
[7] abbreviates: 72 h, HepG2.117 cells, 3 days of treatment, intracellular HBV DNA, read-out: HepG2 117 EC50.

The term EC50 denotes the concentration that produces a half-maximal response. What is called melting point is the temperature, or range, at which the solid turns liquid. Broadly, the CC50 is the concentration at which the toxic effect on the cells reaches its halfway point. `Cc1cc(NC(=O)c2cc(C(=O)C(=O)N[C@H]3CCOC3)cn2C)ccc1F` [Compound 6, (S)—N-(4-fluoro-3-methylphenyl)-1-methyl-4-(2-oxo-2-(tetrahydrofuran-3-ylamino)acetyl)-1H-pyrrole-2-carboxamide] came in with a melting point of 155.7 °C. Further, the EC50 with HBV [1] (setting [4]) amounted to 0.047 µM. The EC50 with HBV [2] (setting [5]) came out at 0.19 µM. Besides, the CC50 at 4 days in series [3] is over 25000 nM.
Turning to `Cc1cc(NC(=O)c2cc(C(=O)C(=O)N[C@H](C)C(F)(F)F)cn2C)ccc1F` [Compound 5, (R)—N-(4-fluoro-3-methylphenyl)-1-methyl-4-(2-oxo-2-(1,1,1-trifluoropropan-2-ylamino)acetyl)-1H-pyrrole-2-carboxamide], the melting point is 156.9 °C. Besides, the EC50 in the series on HBV [1] (setting [6]) came out at 0.056 µM. In addition, the EC50 in the series on HBV [2] (setting [7]) amounted to 0.099 µM. In addition, the CC50 at 4 days in series [3] was over 25000 nM.
Take `Cn1cc(C(=O)C(=O)NC(C)(C)C)c(Cl)c1C(=O)Nc1ccc(F)c(C#N)c1` [Compound 23, 4-[(tert-Butylamino)(oxo)acetyl]-3-chloro-N-(3-cyano-4-fluorophenyl)-1-methyl-1H-pyrrole-2-carboxamide]: the EC50 in the series with HBV [1] (setting [6]) came out at 0.005 µM; in the series on HBV [2] (setting [7]), 0.008 µM. The CC50 at 4 days in series [3] is over 25000 nM.
Regarding `Cc1cc(NC(=O)c2cc(C(=O)C(=O)NC(C)(C)C(N)=O)cn2C)ccc1F` [Compound 8, 4-{[(2-Amino-1,1-dimethyl-2-oxoethyl)amino](oxo)acetyl}-N-(4-fluoro-3-methylphenyl)-1-methyl-1H-pyrrole-2-carboxamide], the values for the 50% effective concentration (EC50) with HBV [1] (setting [6]) and with HBV [2] (setting [7]) were 0.052 µM and 0.038 µM, respectively. This molecule had a half-maximal cytotoxic concentration (CC50) at 4 days in series [3] of over 25000 nM.
In the same order, the values of `C[C@@H](NC(=O)C(=O)c1c(Cl)c(C(=O)Nc2ccc(F)c(C#N)c2)n(C)c1C1CC1)C(F)(F)F` [Compound 31, 3-chloro-N-(3-cyano-4-fluoro-phenyl)-5-cyclopropyl-1-methyl-4-[2-oxo-2-[[(1R)-2,2,2-trifluoro-1-methyl-ethyl]amino]acetyl]pyrrole-2-carboxamide] are 0.012 µM, 0.019 µM and over 25000 nM.
Turning to `Cc1cc(NC(=O)c2cc(C(=O)C(=O)N[C@H](C)CC#N)cn2C)ccc1F` [Compound 9, 4-[{[(1R)-2-Cyano-1-methylethyl]amino}(oxo)acetyl]-N-(4-fluoro-3-methyl-phenyl)-1-methyl-1H-pyrrole-2-carboxamide], the EC50 with HBV [1] (setting [6]) worked out at 0.17 µM; with HBV [2] (setting [7]), 0.2 µM. Further, the 50% cytotoxic concentration (CC50) at 4 days in series [3] was over 25000 nM.
Take `Cn1cc(C(=O)C(=O)NC2(C)COC2)cc1C(=O)Nc1ccc(F)c(C#N)c1` [Compound 16, N-(3-Cyano-4-fluorophenyl)-1-methyl-4-{[(3-methyloxetan-3-yl)amino]-(oxo)acetyl}-1H-pyrrole-2-carboxamide]: the EC50 with HBV [1] (setting [6]) came out at 0.048 µM; with HBV [2] (setting [7]), 0.04 µM. For the same molecule, in series [3], the cytotoxic concentration (CC50) at 4 days was over 25000 nM.
The molecule `Cc1cc(NC(=O)c2cc(C(=O)C(=O)NC3(C)COC3)cn2C)ccc1F` [Compound 4, N-(4-fluoro-3-methylphenyl)-1-methyl-4-(2-(3-methyloxetan-3-ylamino)-2-oxoacetyl)-1H-pyrrole-2-carboxamide] came in with a melting point of 145.1 °C. The EC50 in the series on HBV [1] (setting [4]) is 0.013 µM. Moreover, the EC50 in the series with HBV [2] (setting [5]) came out at 0.015 µM. In addition, the CC50 at 4 days in series [3] was over 25000 nM.
`Cn1cc(C(=O)C(=O)NC(C)(C)C)cc1C(=O)Nc1ccc(F)c(F)c1` [Compound 10, 4-(2-(tert-butylamino)-2-oxoacetyl)-N-(3,4-difluorophenyl)-1-methyl-1H-pyrrole-2-carboxamide] yielded a melting point of 170.7 °C. In addition, the EC50 with HBV [1] (setting [6]) is 0.072 µM. Further, the 50% effective concentration (EC50) in the series on HBV [2] (setting [7]) was found to be 0.042 µM. In series [3], this molecule showed a CC50 at 4 days of over 25000 nM.
Turning to `C[C@@H](NC(=O)C(=O)c1cn(C)c(C(=O)Nc2ccc(F)c(C#N)c2)c1Cl)C(F)(F)F` [Compound 24, 3-chloro-N-(3-cyano-4-fluoro-phenyl)-1-methyl-4-[2-oxo-2-[[(1R)-2,2,2-trifluoro-1-methyl-ethyl]amino]acetyl]pyrrole-2-carboxamide], the EC50 in the series on HBV [1] (setting [6]) turned out to be 0.02 µM; with HBV [2] (setting [7]), 0.024 µM. In series [3], this molecule returned a CC50 at 4 days of over 25000 nM.
As for `Cn1cc(C(=O)C(=O)NC(C)(C)C)cc1C(=O)Nc1ccc(F)c(C#N)c1` [Compound 15, 4-(2-(tert-butylamino)-2-oxoacetyl)-N-(3-cyano-4-fluorophenyl)-1-methyl-1H-pyrrole-2-carboxamide], the figures for the EC50 in the series with HBV [1] (setting [6]) and with HBV [2] (setting [7]) were 0.027 µM and 0.043 µM, respectively. In addition, in series [3], the 50% cytotoxic concentration (CC50) at 4 days is over 25000 nM.
`Cn1cc(C(=O)C(=O)NC2(C)COC2)cc1C(=O)Nc1ccc(F)c(F)c1` [Compound 11, N-(3,4-difluorophenyl)-1-methyl-4-(2-(3-methyloxetan-3-ylamino)-2-oxoacetyl)-1H-pyrrole-2-carboxamide] showed a melting point of 180.7 °C. Moreover, the EC50 in the series with HBV [1] (setting [6]) came out at 0.05 µM. Moreover, the EC50 in the series on HBV [2] (setting [7]) was found to be 0.096 µM. Besides, the CC50 at 4 days in series [3] was over 25000 nM.
Consider `COC(=O)C(C)(C)NC(=O)C(=O)c1cc(C(=O)Nc2ccc(F)c(C)c2)n(C)c1` [Compound 7, methyl 2-(2-(5-(4-fluoro-3-methylphenylcarbamoyl)-1-methyl-1H-pyrrol-3-yl)-2-oxoacetamido)-2-methylpropanoate], for which the melting point came to 161 °C. Also, in the series with HBV [1] (setting [4]), the EC50 is 0.21 µM. In the series with HBV [2] (setting [5]), the EC50 was 0.058 µM. In series [3], this molecule displayed a CC50 at 4 days of over 25000 nM.
`Cc1c(C(=O)C(=O)N[C@H](C)C(F)(F)F)c(Cl)c(C(=O)Nc2ccc(F)c(C#N)c2)n1C` [Compound 30, 3-chloro-N-(3-cyano-4-fluoro-phenyl)-1,5-dimethyl-4-[2-oxo-2-[[(1R)-2,2,2-trifluoro-1-methyl-ethyl]amino]acetyl]pyrrole-2-carboxamide]: the figures for the EC50 with HBV [1] (setting [6]) and with HBV [2] (setting [7]) were under 0.004 µM and 0.003 µM, respectively. The molecule also came in with a CC50 at 4 days in series [3] of over 25000 nM.
Turning to `Cc1c(C(=O)C(=O)NC(C)(C)C)c(C)n(C)c1C(=O)Nc1ccc(F)c(C#N)c1` [Compound 19, 4-[(tert-Butylamino)(oxo)acetyl]-N-(3-cyano-4-fluorophenyl)-1,3,5-trimethyl-1H-pyrrole-2-carboxamide], the EC50 is under 0.004 µM in the series with HBV [1] (setting [6]) and 0.002 µM in the series on HBV [2] (setting [7]). In series [3], this molecule displayed a CC50 at 4 days of over 100000 nM.
The molecule `CC[C@@H](C)NC(=O)C(=O)c1cc(C(=O)Nc2ccc(F)c(C)c2)n(C)c1` [Compound 1, (R)-4-(2-(sec-butylamino)-2-oxoacetyl)-N-(4-fluoro-3-methylphenyl)-1-methyl-1H-pyrrole-2-carboxamide] had a melting point of 136.5 °C. In addition, the EC50 in the series on HBV [1] (setting [6]) was found to be 0.014 µM. Also, the EC50 in the series on HBV [2] (setting [7]) was determined as 0.1 µM. In series [3], this molecule returned a CC50 at 4 days of over 25000 nM.

For the origin of these results see patent publication US10450270B2, “Glyoxamide substituted pyrrolamide derivatives and the use thereof as medicaments for the treatment of hepatitis B” (Janssen Sciences Ireland UC, priority 2013, dated 2019).
